Measured values taken from the supplement of paper PMC10307832.

Key:
Assay in all cases: relative viability (nuclei count vs DMSO), 5 days (fraction); higher = more cells survive
[1] = compound: CCC1=CN=CN=C1N2CCN(CC2)CC3=NC4=C(N3)C=C(C=C4)C(F)(F)F + NC(=O)Nc1cc(-c2cccc(F)c2)sc1C(=O)N[C@H]1CCCNC1 [AZD7762] (partner 0.2 µM)
Outline: (§1)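 Cells from lung cancer lines were seeded into 1536-well plates and, one day later, dosed by pin tool. Treatments were either a single drug or a fixed dose of an anchor drug with five library-drug doses (not always all listed) in √10 steps. After 5 days, nuclei were stained in a one-step fixation (final 0.05% Triton X-100, 1% formaldehyde, 1 ug/ml Hoechst) and counted on 4× images, and relative viability is the treated-to-vehicle nuclei ratio, as the median of duplicate plates.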

[2] = compound: CCn1c(-c2nonc2N)nc2cnc(Oc3cccc(NC(=O)c4ccc(OCCN5CCOCC5)cc4)c3)cc21 + CC(=O)c1c(C)c2cnc(Nc3ccc(N4CCNCC4)cn3)nc2n(C2CCCC2)c1=O [Palbociclib] (partner 0.5 µM)
Outline: as §1

[3] = compound: CCn1c(-c2nonc2N)nc2cnc(Oc3cccc(NC(=O)c4ccc(OCCN5CCOCC5)cc4)c3)cc21 + C[C@]1(O)C[C@@H](c2nc(-c3ccc4ccc(-c5ccccc5)nc4c3)c3c(N)nccn32)C1 [Linsitinib] (partner 1 µM)
Outline: as §1

Mirin + Palbociclib = compound: N=C1NC(=O)/C(=C/c2ccc(O)cc2)S1 [Mirin] + CC(=O)c1c(C)c2cnc(Nc3ccc(N4CCNCC4)cn3)nc2n(C2CCCC2)c1=O [Palbociclib] (partner 0.5 µM)
Outline: as §1

NCI-H3122
relative viability ([1]; first compound 0.04 µM): 0.971
relative viability ([1]; first compound 0.1265 µM): 0.947
relative viability ([1]; first compound 0.4 µM): 0.957
relative viability ([1]; first compound 1.265 µM): 1.04
relative viability ([1]; first compound 4 µM): 0.977
relative viability ([2]; first compound 0.04 µM): 0.209
relative viability ([2]; first compound 0.1265 µM): 0.182
relative viability ([2]; first compound 0.4 µM): 0.184
relative viability ([2]; first compound 1.265 µM): 0.19
relative viability ([2]; first compound 4 µM): 0.19
relative viability ([3]; first compound 0.04 µM): 1.04
relative viability ([3]; first compound 0.1265 µM): 0.985
relative viability ([3]; first compound 0.4 µM): 0.991
relative viability ([3]; first compound 1.265 µM): 1
relative viability ([3]; first compound 4 µM): 0.934
relative viability (Mirin + Palbociclib; first compound 0.25 µM): 0.192
relative viability (Mirin + Palbociclib; first compound 0.7906 µM): 0.197
relative viability (Mirin + Palbociclib; first compound 2.5 µM): 0.199
relative viability (Mirin + Palbociclib; first compound 7.906 µM): 0.166
relative viability (Mirin + Palbociclib; first compound 25 µM): 0.165

PC-3 [JPC-3]
relative viability ([1]; first compound 0.1265 µM): 0.688
relative viability ([1]; first compound 0.4 µM): 0.69
relative viability ([1]; first compound 1.265 µM): 0.683
relative viability ([1]; first compound 4 µM): 0.808
relative viability ([2]; first compound 0.04 µM): 0.539
relative viability ([2]; first compound 0.1265 µM): 0.548
relative viability ([2]; first compound 0.4 µM): 0.444
relative viability ([2]; first compound 1.265 µM): 0.497
relative viability ([2]; first compound 4 µM): 0.482
relative viability ([3]; first compound 0.04 µM): 0.945
relative viability ([3]; first compound 0.1265 µM): 1
relative viability ([3]; first compound 0.4 µM): 0.969
relative viability ([3]; first compound 1.265 µM): 0.968
relative viability ([3]; first compound 4 µM): 0.947
relative viability (Mirin + Palbociclib; first compound 0.25 µM): 0.596
relative viability (Mirin + Palbociclib; first compound 0.7906 µM): 0.574
relative viability (Mirin + Palbociclib; first compound 2.5 µM): 0.551
relative viability (Mirin + Palbociclib; first compound 7.906 µM): 0.524
relative viability (Mirin + Palbociclib; first compound 25 µM): 0.631

PC-14
relative viability ([1]; first compound 0.04 µM): 0.317
relative viability ([1]; first compound 0.1265 µM): 0.337
relative viability ([1]; first compound 0.4 µM): 0.338
relative viability ([1]; first compound 1.265 µM): 0.387
relative viability ([1]; first compound 4 µM): 0.395
relative viability ([2]; first compound 0.04 µM): 0.578
relative viability ([2]; first compound 0.1265 µM): 0.432
relative viability ([2]; first compound 0.4 µM): 0.466
relative viability ([2]; first compound 1.265 µM): 0.486
relative viability ([2]; first compound 4 µM): 0.414
relative viability ([3]; first compound 0.04 µM): 1
relative viability ([3]; first compound 0.1265 µM): 0.901
relative viability ([3]; first compound 0.4 µM): 0.878
relative viability ([3]; first compound 1.265 µM): 0.716
relative viability ([3]; first compound 4 µM): 0.648
relative viability (Mirin + Palbociclib; first compound 0.25 µM): 0.528
relative viability (Mirin + Palbociclib; first compound 0.7906 µM): 0.558
relative viability (Mirin + Palbociclib; first compound 2.5 µM): 0.508
relative viability (Mirin + Palbociclib; first compound 7.906 µM): 0.512
relative viability (Mirin + Palbociclib; first compound 25 µM): 0.522

RERF-LC-KJ
relative viability ([1]; first compound 0.04 µM): 0.795
relative viability ([1]; first compound 0.1265 µM): 0.953
relative viability ([1]; first compound 0.4 µM): 0.976
relative viability ([1]; first compound 1.265 µM): 0.97
relative viability ([1]; first compound 4 µM): 0.952
relative viability ([2]; first compound 0.04 µM): 1.1
relative viability ([2]; first compound 0.1265 µM): 1.08
relative viability ([2]; first compound 0.4 µM): 0.969
relative viability ([2]; first compound 1.265 µM): 0.655
relative viability ([2]; first compound 4 µM): 0.678
relative viability ([3]; first compound 0.04 µM): 1.06
relative viability ([3]; first compound 0.1265 µM): 0.976
relative viability ([3]; first compound 0.4 µM): 0.877
relative viability ([3]; first compound 1.265 µM): 0.721
relative viability ([3]; first compound 4 µM): 0.637
relative viability (Mirin + Palbociclib; first compound 0.25 µM): 1.14
relative viability (Mirin + Palbociclib; first compound 0.7906 µM): 1.09
relative viability (Mirin + Palbociclib; first compound 2.5 µM): 1.2
relative viability (Mirin + Palbociclib; first compound 7.906 µM): 1.2
relative viability (Mirin + Palbociclib; first compound 25 µM): 1.1
